Test results as given in article PMC6368365, “Didehydro-Cortistatin A Inhibits HIV-1 by Specifically Binding to the Unstructured Basic Region of Tat” (mBio, 2019).

Biological target: T1, FLAG-Tat (Human immunodeficiency virus type 1 group M subtype B, UniProt P69697)
T1 construct: expressed in transfected cells; host or cells: HeLa-CD4-LTR-Luc
Assay: Confocal immunofluorescence of FLAG-Tat subcellular localization
Assay type: cell-based, HIV-1
Conditions: 100 nM dCA, HeLa-CD4-LTR-Luc cells
Source text: If dCA were to bind the basic domain of Tat in its disordered form, then one would predict it might also bind to other basic peptide sequences and block their functions. The two well-known proteins that share a similar basic domain with Tat are HIV-1 Rev protein and the cellular protein Hexim-1 (Fig. 3A). As such, we investigated whether dCA could inhibit these similar basic domain functions. The basic domain of Rev is responsible for its nuclear localization ([31]); therefore, we assessed whether dCA could impact the subcellular localization of Rev (Fig. 3B) as previously shown for Tat ([10]). We transfected HeLa-CD4-LTR-Luc cells with a plasmid expressing FLAG-tagged Rev and assessed Rev localization in the presence of 100 nM dCA. […] Twenty-four hours later, cells were collected, and total, nuclear, and cytoplasmic mRNAs were extracted, reverse transcribed, and quantified by quantitative real-time PCR (qRT-PCR).
(A) Sequence of the basic domains of HIV Tat HXB3, HIV Rev Bru and intracellular Hexim-1. […] (C) Quantification of the nucleolar fluorescence of panel B using ImageJ. […] Total, nuclear, and cytoplasmic mRNAs were extracted, and viral messages were determined by qRT-PCR. […] (G) Quantification of nuclear fluorescence of panel F using ImageJ. […] Statistical significance was determined using one-way ANOVA with post hoc Tukey’s test. ns, not significant; ***, P < 0.0001; **, P < 0.001. […]

T1 sequence (P69697 whole entry): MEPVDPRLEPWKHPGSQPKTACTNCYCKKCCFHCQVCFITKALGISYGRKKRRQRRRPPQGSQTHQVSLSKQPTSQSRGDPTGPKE

## CN(C)C1CC23CCC4(O2)C(=CCC2(C)C(c5ccc6ccncc6c5)=CCC24)C=C3C(O)C1O (stereo not shown) [dCA, didehydro-cortistatin A]
  subcellular localization of Tat: significant redistribution of Tat to the periphery of the nucleolus
